Source: ChEMBL document CHEMBL4007427, “Inhibition of the Aldehyde Dehydrogenase 1/2 Family by Psoralen and Coumarin Derivatives” (J Med Chem, 2017)

Legend:
[1] = biological target: T1, Aldehyde dehydrogenase 1A1 (Homo sapiens, UniProt P00352)
T1 sequence (P00352 whole entry): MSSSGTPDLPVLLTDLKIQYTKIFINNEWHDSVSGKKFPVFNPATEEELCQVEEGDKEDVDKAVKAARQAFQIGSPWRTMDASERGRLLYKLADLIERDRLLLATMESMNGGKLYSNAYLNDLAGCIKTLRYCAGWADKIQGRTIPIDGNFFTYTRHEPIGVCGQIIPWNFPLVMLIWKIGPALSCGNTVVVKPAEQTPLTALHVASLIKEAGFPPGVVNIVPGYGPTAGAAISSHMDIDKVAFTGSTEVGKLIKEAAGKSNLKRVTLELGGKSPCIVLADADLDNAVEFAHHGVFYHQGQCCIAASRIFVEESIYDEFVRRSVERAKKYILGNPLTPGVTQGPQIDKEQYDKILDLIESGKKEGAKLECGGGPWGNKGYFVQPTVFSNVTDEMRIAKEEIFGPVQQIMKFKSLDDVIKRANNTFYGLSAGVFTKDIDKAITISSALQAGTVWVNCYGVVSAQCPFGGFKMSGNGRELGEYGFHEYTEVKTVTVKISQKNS
Description: Inhibition of full length recombinant human ALDH1A1 expressed in Escherichia coli BL21(DE3) assessed as reduction in dehydrogenase activity by measuring NAD(P)H level preincubated for 2 mins followed by addition of propionaldehyde as substrate in presence of NAD+ by spectrophotometric method

[2] = biological target: T2, Retinaldehyde dehydrogenase 3 (Homo sapiens, UniProt P47895); assay: Activation of full length recombinant human ALDH1A3 expressed in Escherichia coli BL21(DE3) preincubated for 2 mins followed by addition of propionaldehyde as substrate in presence of NAD+ by spectrophotometric method
T2 sequence (P47895 whole entry): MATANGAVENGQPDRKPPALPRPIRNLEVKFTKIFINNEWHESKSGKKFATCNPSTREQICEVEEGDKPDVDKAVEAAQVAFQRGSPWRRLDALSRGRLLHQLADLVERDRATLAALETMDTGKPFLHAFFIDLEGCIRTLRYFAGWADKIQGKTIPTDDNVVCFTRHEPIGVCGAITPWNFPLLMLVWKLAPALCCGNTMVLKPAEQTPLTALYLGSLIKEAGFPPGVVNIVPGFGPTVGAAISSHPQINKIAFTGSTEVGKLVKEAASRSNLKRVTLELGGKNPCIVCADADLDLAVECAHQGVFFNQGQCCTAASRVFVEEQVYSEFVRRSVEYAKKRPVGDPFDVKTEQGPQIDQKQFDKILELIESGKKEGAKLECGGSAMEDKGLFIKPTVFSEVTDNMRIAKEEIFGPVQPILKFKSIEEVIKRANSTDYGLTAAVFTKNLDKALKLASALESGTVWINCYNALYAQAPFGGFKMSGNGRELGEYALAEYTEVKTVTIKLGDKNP

[3] = biological target: T3, Retinaldehyde dehydrogenase 3 (Homo sapiens) (UniProt P47895); assay: (§1) Activation of full length recombinant human ALDH1A3 expressed in Escherichia coli BL21(DE3) preincubated for 2 mins followed by addition of propionaldehyde as substrate in presence of NAD+ by spectrophotometric method relative to control
T3 sequence (whole entry): T2 sequence (P47895 whole entry)

[4] = biological target: T4, Aldehyde dehydrogenase X, mitochondrial (Homo sapiens, UniProt P30837)
T4 sequence (P30837 whole entry): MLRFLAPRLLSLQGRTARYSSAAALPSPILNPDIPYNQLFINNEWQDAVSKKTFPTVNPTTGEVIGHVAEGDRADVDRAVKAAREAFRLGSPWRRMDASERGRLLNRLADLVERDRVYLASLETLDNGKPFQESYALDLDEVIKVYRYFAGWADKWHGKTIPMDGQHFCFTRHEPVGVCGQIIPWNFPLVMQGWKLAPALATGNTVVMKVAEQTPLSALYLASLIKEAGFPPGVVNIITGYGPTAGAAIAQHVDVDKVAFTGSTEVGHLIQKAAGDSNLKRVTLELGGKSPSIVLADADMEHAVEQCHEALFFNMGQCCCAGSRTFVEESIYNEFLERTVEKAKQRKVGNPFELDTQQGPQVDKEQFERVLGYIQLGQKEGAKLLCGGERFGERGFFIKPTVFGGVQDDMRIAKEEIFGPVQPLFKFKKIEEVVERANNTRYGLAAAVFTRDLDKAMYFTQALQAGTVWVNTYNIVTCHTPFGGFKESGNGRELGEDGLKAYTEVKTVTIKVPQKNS
Description: Inhibition of full length recombinant human ALDH1B1 expressed in Escherichia coli TunerDE3 assessed as reduction in dehydrogenase activity by measuring NAD(P)H level preincubated for 2 mins followed by addition of propionaldehyde as substrate in presence of NAD+ by spectrophotometric method

Retinal dehydrogenase 2 = biological target: T5, Retinal dehydrogenase 2 (Homo sapiens, UniProt O94788)
T5 sequence (O94788 whole entry): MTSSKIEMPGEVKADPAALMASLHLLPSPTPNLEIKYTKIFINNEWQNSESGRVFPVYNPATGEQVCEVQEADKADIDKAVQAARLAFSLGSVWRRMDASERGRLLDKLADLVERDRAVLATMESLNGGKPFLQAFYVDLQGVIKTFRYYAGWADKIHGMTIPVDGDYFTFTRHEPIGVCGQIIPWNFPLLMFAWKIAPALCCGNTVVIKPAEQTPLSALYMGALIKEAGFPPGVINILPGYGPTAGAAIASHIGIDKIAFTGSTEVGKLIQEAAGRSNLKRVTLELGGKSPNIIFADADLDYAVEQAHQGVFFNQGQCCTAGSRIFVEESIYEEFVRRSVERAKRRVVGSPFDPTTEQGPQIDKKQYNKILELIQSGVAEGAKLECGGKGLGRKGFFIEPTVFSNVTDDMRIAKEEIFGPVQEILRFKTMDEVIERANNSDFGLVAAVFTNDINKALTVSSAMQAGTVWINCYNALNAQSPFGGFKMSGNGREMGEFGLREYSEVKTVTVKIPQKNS
Description: Inhibition of full length recombinant human ALDH1A2 expressed in Escherichia coli BL21(DE3) assessed as reduction in dehydrogenase activity by measuring NAD(P)H level preincubated for 2 mins followed by addition of propionaldehyde as substrate in presence of NAD+ by spectrophotometric method

[5] = biological target: T2, Retinaldehyde dehydrogenase 3
Description: Inhibition of full length recombinant human ALDH1A3 expressed in Escherichia coli BL21(DE3) assessed as reduction in dehydrogenase activity by measuring NAD(P)H level preincubated for 2 mins followed by addition of propionaldehyde as substrate in presence of NAD+ by spectrophotometric method

[6] = biological target: T6, Retinal dehydrogenase 2 (Homo sapiens) (UniProt O94788); assay: as §1, with “Inhibition” for “Activation”, “ALDH1A2” for “ALDH1A3”, “BL21(DE3) assessed as reduction in dehydrogenase activity by measuring NAD(P)H level” for “BL21(DE3)”
T6 sequence (whole entry): T5 sequence (O94788 whole entry)

[7] = biological target: T7, Aldehyde dehydrogenase X, mitochondrial (Homo sapiens) (UniProt P30837); assay: as §1, with “Inhibition” for “Activation”, “ALDH1B1” for “ALDH1A3”, “TunerDE3 assessed as reduction in dehydrogenase activity by measuring NAD(P)H level” for “BL21(DE3)”
T7 sequence (whole entry): T4 sequence (P30837 whole entry)

[8] = biological target: T8, Aldehyde dehydrogenase 1A1 (Homo sapiens) (UniProt P00352); assay: as §1, with “Inhibition” for “Activation”, “ALDH1A1” for “ALDH1A3”, “BL21(DE3) assessed as reduction in dehydrogenase activity by measuring NAD(P)H level” for “BL21(DE3)”
T8 sequence (whole entry): T1 sequence (P00352 whole entry)

[9] = biological target: T3, Retinaldehyde dehydrogenase 3 (Homo sapiens); assay: as §1, with “Inhibition” for “Activation”, “BL21(DE3) assessed as reduction in dehydrogenase activity by measuring NAD(P)H level” for “BL21(DE3)”
[10] = biological target: T1, Aldehyde dehydrogenase 1A1; assay: Uncompetitive inhibition of full length recombinant human ALDH1A1 expressed in Escherichia coli BL21(DE3) using propionaldehyde as substrate in presence of varying levels NAD+ by Lineweaver-Burk plot analysis

With `CCCc1cc(=O)oc2cc3oc(C)c(C)c3cc12` the IC50 [1] was “Not Active”, the AC50 [2] was 0.87 µM and the %max [3] was 200%.

`C/C(=N\O)c1cc2cc(Br)ccc2oc1=O` was tested, and the IC50 [1] was “Not Active”, the IC50 [4] was “Not Active” and the IC50 (Retinal dehydrogenase 2) was “Not Active”. The AC50 [2] was 35 µM and the %max [3] was 200%.

In the case of `COC(=O)C(C)Oc1ccc2c(C)cc(=O)oc2c1` (centres undefined), the IC50 [1] is reported as “Not Active”, the IC50 [4] is reported as “Not Active” and the IC50 (Retinal dehydrogenase 2) is reported as “Not Active”. For the same compound, the IC50 [5] was “Not Active”.

With `Cc1oc2cc3oc(=O)c(C)c(C)c3cc2c1C` the IC50 [1] was “Not Active”, the Imax [6] was 60% and the Imax [7] was 60%.

`CCCc1c(C)c2cc3c(C)coc3cc2oc1=O` was tested, and the Imax [8] was 60%.

`Cc1oc2cc3oc(=O)c4c(c3cc2c1C)CCC4` showed an Imax [8] of 50 to 60% and an Imax [9] of 50 to 60%.

`Cc1oc2cc3oc(=O)c(CCC(=O)N4CCCCC4)c(C)c3cc2c1C` gave a Ki [10] of 170 nM.
